In patent US20250171404A1, “PCNA INHIBITORS AND USES THEREOF” (CITY OF HOPE, priority 2022, published 2025):

Test system: SK-N-AS derived xenograft tumors
Experiment: Survival of mice bearing xenograft tumors, AOH1996 with CPT-11
Assay type: in vivo, ES1^e/SCID mice
Conditions: AOH1996 80 mg/kg oral 8 d; CPT-11 15 mg/kg i.p. 3 d; vs untreated
Method: FIGS. 4A-4H. Pharmacokinetics and anti-tumor growth activity of AOH1996 in vivo. FIG. 4A: After oral administration, the plasma concentrations of AOH1996 from three male and three female ES1^e/SCID mice at the indicated time points were averaged and graphed ±S.D. The inset contains PK parameters determined by a standard noncompartmental method. FIG. 4B: A similar PK study of AOH1996 was performed in dogs. FIGS. 4C-4E: Mice bearing the xenograft tumors of neuroblastoma (FIG. 4C: SK-N-BE(2)c), breast cancer (FIG. 4D: MDA-MB-468), and small-cell lung cancer (FIG. 4E: H82) were given vehicle only (black) or 40 mg/kg of AOH1996 (grey) twice daily immediately after the first measurement. Tumor sizes were measured by a dial caliper each week. Tumor volumes (0.4×L×W^2) were averaged and graphed ±S.E. (*, P<0.01). FIG. 4F: Animal body weight was monitored throughout the studies as an indicator of toxicity. […] FIG. 4G: The levels of phosphor-Chk1 (pChk1) and γH2A.X in SK-N-BE(2)c derived tumor samples were analyzed by IHC. […] The p values determined by the Log-rank (Mantel-Cox) test between combination treatment and each of the control groups are p=0.0003 (Combination vs. NoRx), p=0.005 (Combination vs. AOH1996 alone), and p=0.024 (Combination vs. CPT-11 alone). […]
In vivo tumor model. […] Tumor size and animal weight were measured weekly. […]

COc1cccc(Oc2ccccc2NC(=O)CNC(=O)c2cccc3ccccc23)c1 [AOH1996, N-(2-((2-(3-methoxyphenoxy)phenyl)amino)-2-oxoethyl)-1-naphthamide]
increase of median survival: ~11.5%
